{"source": "patent US20240424053A1", "about": "“METHODS AND COMPOSITIONS FOR PROVIDING MYOCARDIAL PROTECTION AND TREATING MYOCARDIAL STRESS AND FIBROSIS” (Tufts Medical Center, Inc., priority 2021, published 2024)", "key": {"PAR1 [1]": {"target": "T1, PAR1 (Homo sapiens, UniProt P25116)", "T1 construct": "delivered intravenously in 100 patients with coronary artery disease (CAD) and acute coronary syndrome (ACS) undergoing cardiac catheterization; endogenous in cells; host or cells: patients of the TRIP-PCI trial (platelets ex vivo; whole body in vivo)", "T1 sequence (P25116 22-425)": "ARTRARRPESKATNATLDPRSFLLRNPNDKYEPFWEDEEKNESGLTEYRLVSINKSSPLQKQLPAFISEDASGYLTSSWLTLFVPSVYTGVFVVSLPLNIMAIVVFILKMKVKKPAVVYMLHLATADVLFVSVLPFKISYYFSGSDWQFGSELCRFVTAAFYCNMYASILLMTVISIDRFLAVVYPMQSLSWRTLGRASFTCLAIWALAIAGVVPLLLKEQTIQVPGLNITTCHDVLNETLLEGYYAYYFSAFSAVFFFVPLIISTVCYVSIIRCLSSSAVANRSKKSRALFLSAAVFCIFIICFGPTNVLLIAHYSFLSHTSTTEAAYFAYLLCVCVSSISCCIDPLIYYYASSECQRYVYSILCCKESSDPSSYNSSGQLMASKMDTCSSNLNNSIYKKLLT", "assay": "TRIP-PCI phase 2 study in patients with CAD/ACS undergoing cardiac catheterization", "format": "in vivo", "settings": "9 patients with heart failure, EFs 30-53%", "method": "TRIP-PCI was a multicenter, randomized, double-blind placebo-controlled phase 2 study that examined the safety, tolerability, and efficacy of PZ-128 at two dose levels (0.3 and 0.5 mg/kg, versus placebo, 1:1:1), delivered intravenously in 100 patients with coronary artery disease (CAD) and acute coronary syndrome (ACS) undergoing cardiac catheterization (Kuliopulos et al., Arterioscler. Thromb. Vasc. Biol 40(12):2990-3003, 2020). PAR1 inhibitors are intended to suppress thrombin-induced platelet activation to reduce damage during percutaneous coronary intervention (PCI) and ACS, potentially reducing the risk of myocardial infarction, stroke, and serious adverse events (Mackman et al., Nat. Rev. Drug Discov. 19(5):333-352, 2020). PZ-128 clinical trial participants received a single 2-h intravenous infusion of PZ-128 or placebo started just prior to catheterization along with standard antiplatelet therapy. […] The majority of events occurred within the first 24 h, with a nonsignificant decrease in hazard ratio (HR=0.81) of a MACE/myonecrosis event in the PZ-128 treated groups versus placebo. […]"}, "PAR1 [2]": {"tested_on": "PAR1", "settings": "cited from earlier work"}, "PAR1 [3]": {"target": "T1, PAR1", "settings": "cited from earlier work"}, "PAR1 [4]": {"target": "T1, PAR1", "settings": "cited from earlier work", "remark": "listed apart in the source"}}, "note": "Where two headings read alike, the source gives them in different places. Where a SMILES comes first, the peptide text is derived from it. The star is where a group is joined. Palmitoyl = CCCCCCCCCCCCCCCC(=O)*", "data": [{"smiles": "CCCCCCCCCCCCCCCC(=O)N[C@@H](CCCCN)C(=O)N[C@@H](CCCCN)C(=O)N[C@@H](CO)C(=O)N[C@@H](CCCNC(=N)N)C(=O)N[C@@H](C)C(=O)N[C@@H](CC(C)C)C(=O)N[C@@H](Cc1ccccc1)C(N)=O", "note": "[PZ-128, Palmitate-KKSRALF-NH2] (Palmitoyl-KKSRALF-NH2)", "values": [{"measurement": "tolerability in heart failure patients", "setting": "PAR1 [1]", "value": "tolerated well"}, {"measurement": "mode of action at PAR1", "setting": "PAR1 [2]", "value": "full PAR1 antagonists"}, {"measurement": "overall safety and tolerability", "setting": "PAR1 [3]; 0.3 and 0.5 mg/kg, single 2-h intravenous infusion, 100 patients", "value": "safe and well-tolerated"}, {"measurement": "hazard ratio of a MACE/myonecrosis event versus placebo", "setting": "PAR1 [3]; PZ-128 treated groups, nonsignificant decrease", "value": 0.81}, {"measurement": "major adverse coronary events (MACE)", "setting": "PAR1 [3]; at 30 days, combined PZ-128 dose groups (placebo 6%, P=0.13)", "value": 0, "unit": "%"}, {"measurement": "major adverse coronary events (MACE)", "setting": "PAR1 [3]; at 90 days, combined PZ-128 dose groups (placebo 6%, P=0.29)", "value": 2, "unit": "%"}, {"measurement": "MACE and myocardial injury within 30 days", "setting": "PAR1 [3]; subgroup with elevated baseline cardiac troponin I (placebo 83%, P=0.02)", "value": 31, "unit": "%"}, {"measurement": "primary safety endpoint: bleeding vs vehicle", "setting": "PAR1 [3]; up to 30 days posttreatment", "value": "not significantly different"}, {"measurement": "PAR1 aggregation response recovered", "setting": "PAR1 [4]; at 14 days post-dose", "value": 50, "unit": "%"}, {"measurement": "time at which inhibition of SFLLRN-induced platelet aggregation could be detected", "setting": "PAR1 [4]; post-dose", "value": "≤ 1", "unit": "h"}, {"measurement": "time of peak inhibition of SFLLRN-induced platelet aggregation", "setting": "PAR1 [4]; post-dose", "value": 24, "unit": "h"}]}]}
